Data from ChEMBL document CHEMBL1144250, “3D QSAR studies on GSK-3 inhibition by aloisines” (Bioorg Med Chem Lett, 2005).

molecular target: Glycogen synthase kinase-3 (Homo sapiens, UniProt P49840+P49841); assay: Inhibitory concentration against Glycogen synthase kinase-3; format: protein assay

Row | Log IC50 | Structure (SMILES)
1 | -5.17 | COc1ccc(-c2[nH]c3nccnc3c2CC2CCCCC2)cc1
2 | -5 | CCCCCCCc1c(-c2ccc(OC)cc2)[nH]c2nccnc12
3 | -5.77 | Cc1c(-c2ccc(Cl)cc2)[nH]c2nccnc12
4 | -5.72 | Fc1ccc(-c2cc3[nH]ccnc-3n2)cc1
5 | -5.64 | c1ccc(-c2cc3[nH]ccnc-3n2)cc1
6 | -6.22 | C=CCc1c(-c2ccc(OC)cc2)[nH]c2nccnc12
7 | -5.23 | CCCCc1c(-c2ccc(Cl)cc2)[nH]c2nccnc12
8 | -5.7 | COc1ccc(-c2[nH]c3nccnc3c2C)cc1OC
9 | -4.22 | COc1cc(OC)cc(-c2cc3[nH]ccnc-3n2)c1
10 | -5.19 | Oc1ccccc1-c1cc2[nH]ccnc-2n1
11 | -5.5 | COc1cccc(-c2cc3[nH]ccnc-3n2)c1
12 | -5.6 | COc1ccc(-c2[nH]c3nccnc3c2CCCCl)cc1
13 | -5.22 | Brc1ccc(-c2cc3[nH]ccnc-3n2)cc1
14 | -4.92 | CN(C)c1ccc(-c2cc3[nH]ccnc-3n2)cc1
15 | -5.48 | COc1ccccc1-c1cc2[nH]ccnc-2n1
16 | -6.4 | CCCc1c(-c2ccc(OC)cc2)[nH]c2nccnc12
17 | -4.7 | COc1cc(-c2cc3[nH]ccnc-3n2)cc(OC)c1OC

Row | Log IC50 | Structure (SMILES)
18 | -5.96 | COc1ccc(-c2[nH]c3nccnc3c2CC2CC2)cc1
19 | -5.32 | N#Cc1ccc(-c2cc3[nH]ccnc-3n2)cc1
20 | -5.74 | CCCc1c(-c2ccc(O)cc2)[nH]c2nccnc12
21 | -6.3 | COc1ccc(-c2[nH]c3nccnc3c2C(C)C)cc1
22 | -6.34 | COc1ccc(-c2[nH]c3nccnc3c2C)cc1
23 | -6.3 | Cc1c(-c2ccc(OS(=O)(=O)N(C)C)cc2)[nH]c2nccnc12
24 | -5.52 | Oc1ccc(-c2[nH]c3nccnc3c2CC2CC2)cc1
25 | -5.14 | FC(F)(F)c1ccc(-c2cc3[nH]ccnc-3n2)cc1
26 | -6.12 | CC(C)c1c(-c2ccc(Cl)cc2)[nH]c2nccnc12
27 | -6 | c1ccc(Cc2c(-c3ccccc3)[nH]c3nccnc23)cc1
28 | -6.28 | Cc1c(-c2ccc(O)cc2)[nH]c2nccnc12
29 | -6.04 | CCCCc1c(-c2ccc(OC)cc2)[nH]c2nccnc12 [ALOISINE]
30 | -5.17 | Clc1ccc(-c2[nH]c3nccnc3c2Cc2ccccc2)cc1
31 | -5.59 | Cc1ccc(-c2cc3[nH]ccnc-3n2)cc1
32 | -5.1 | Clc1ccc(-c2[nH]c3nccnc3c2CC2CCCCC2)cc1
33 | -5.96 | COc1ccc(-c2cc3[nH]ccnc-3n2)cc1
34 | -5.92 | Oc1ccc(-c2cc3[nH]ccnc-3n2)cc1
